Results on 22 compounds are retold here after publication PMC12472551, “Comprehensive Identification and Mechanistic Evaluation of Novel DHODH Inhibitors as Potent Broad-Spectrum Antiviral Agents” (Pharmaceuticals, 2025).

One series concerns human lung organoids. The note with it: viral replication in human lung organoids; cited from earlier work.
Series [1] has as its system influenza A virus (A/PR/8/34(H1N1)). Briefly: microbe, parasite or virus in culture. In kind it is cell-based.
Series [2] can be described thus: MTT cytotoxicity assay in MDCK cells. The note with it: dog. In kind it is cell-based, Canine. As to the method: (§1) The cytotoxic effects of the test compounds on MDCK and Vero cell lines were evaluated utilizing the 3-(4,5-dimethylthiazol-2-yl)-2,5-diphenyltetrazolium bromide (MTT) assay. In brief, cells were seeded in 96-well plates and maintained in complete growth medium. After an overnight incubation period, this medium was aspirated and replaced with serum-free DMEM containing the compounds at predetermined concentrations. After 48 h of treatment, MTT dissolved in PBS was introduced into each well to achieve a final concentration of 0.5 mg/mL. Subsequent incubation at 37 °C for 2 h facilitated formazan crystal formation. The medium was then aspirated, and DMSO was added to solubilize the formazan crystals. Absorbance measurements at 540 nm were conducted using a CLARIOstar microplate reader.
(In general: Tetrazolium assays rely on reduction of a dye to a coloured formazan, in cell work by metabolically active cells.)

A further series has as its target human DHODH (Homo sapiens, UniProt Q02127). Description: Surface plasmon resonance binding.
A further series deals with SARS-CoV-2. Briefly: microbe, parasite or virus in culture. As to conditions: Severe acute respiratory syndrome coronavirus 2. In kind it is cell-based.
Series [3] is described as follows: MTT cytotoxicity assay in Vero cells. In kind it is cell-based. As to conditions: African green monkey, Vero-ACE2-TMPRSS2 cells. As for the experimental part:
A Vero-ACE2-TMPRSS2 (labelled ‘Vero’ hereafter) cell line was used for SARS-CoV-2.
as §1

The subject of a further series is DHODH. The note with it: cited from earlier work.
For series [4] the following is noted: read-out: CC50 (hematological toxicity); cited from earlier work.
The test system of the next series is DENV and ZIKV viruses. Also noted: method as in PMID 33716051. As to conditions: cited from earlier work.
[5] abbreviates: Influenza A virus, MDCK, A/PR/8/34(H1N1), MDCK cells, plaque reduction, read-out: IC50.
Where [6] appears, read: SARS-CoV-2, Vero-ACE2-TMPRSS2 cells, plaque assay, read-out: IC50.

Like-named read-outs stand apart in the source and are kept apart here.

Chain of human DHODH (Q02127 whole entry): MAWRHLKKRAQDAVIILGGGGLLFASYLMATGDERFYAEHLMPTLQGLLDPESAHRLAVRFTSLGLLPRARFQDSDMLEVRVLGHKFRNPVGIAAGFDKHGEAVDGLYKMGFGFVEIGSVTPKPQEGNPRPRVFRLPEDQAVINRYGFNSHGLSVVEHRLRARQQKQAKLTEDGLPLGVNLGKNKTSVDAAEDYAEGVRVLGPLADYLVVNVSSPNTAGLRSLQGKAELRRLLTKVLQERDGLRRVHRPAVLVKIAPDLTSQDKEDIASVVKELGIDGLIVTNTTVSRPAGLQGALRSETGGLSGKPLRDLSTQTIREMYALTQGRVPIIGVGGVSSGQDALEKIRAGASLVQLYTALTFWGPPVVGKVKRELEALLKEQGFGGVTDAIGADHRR
Protocol for human DHODH: SPR binding affinities were determined using a Reichert 2SPR instrument (Reichert Technologies, Amherst, NY, USA). Carboxymethyl dextran hydrogel sensor chips were amine-coupled via standard EDC/NHS chemistry. […] Remaining activated groups were quenched with 1 M ethanolamine-HCl (pH 8.5). Equilibrium dissociation constants (KD) were derived from concentration–response curves generated by injecting compound dilutions in HBS-EP+ buffer at 30 μL/min. Original data were processed using TraceDrawer (version 1.8) software with steady-state affinity models fitted by nonlinear regression analysis.

`CCn1c(CO)nn(-c2cc(O[C@@H](C)C(F)(F)F)c(C(=O)Nc3c(F)cccc3Cl)cc2F)c1=O` [BAY 2402234]: the EC50 in the series with human lung organoids is 0.032 µM.
Regarding `COC(=O)OCOc1c2n(ccc1=O)N([C@@H]1c3ccccc3SCc3c1ccc(F)c3F)[C@@H]1COCCN1C2=O` [Baloxavir marboxil, reference compound], the IC50 in series [1] (setting [5]) was 0.00967 ± 0.00112 µM.
`CC1(c2ccccc2)CC(C)(C)N(C(=O)CSc2nc(O)cc(CSc3ccc(Cl)cc3)n2)c2ccccc21` (centres unmarked) [Compound 1]: half-maximal inhibition in [1] (Influenza A virus, MDCK) (IC50) required 36.8 ± 2.36 µM. In [2], this compound had a CC50 at 48 h of 34.5 ± 1.58 µM.
In series [1] (Influenza A virus, MDCK), `O=C(CCCCCn1c(=O)c2sccc2n(CC(=O)NCCC2=CCCCC2)c1=O)NCc1ccc(F)cc1` [Compound 2] yielded an IC50 above 200 µM. In [2], this compound yielded a CC50 at 48 h above 200 µM.
In series [1] (Influenza A virus, MDCK), `COC(=O)c1ccc(NC(=O)CSc2nc(-c3sc(-c4ccccc4)nc3C)cc(=O)[nH]2)cc1` [Compound 3] returned an IC50 above 200 µM. The compound further returned a CC50 at 48 h in series [2] above 200 µM.
Compound `CCCCc1nn2c(=O)cc(CSc3nc4ccc(NC(C)=O)cc4s3)nc2s1` [Compound 4] showed an IC50 in series [1] (Influenza A virus, MDCK) of 66.2 ± 6.29 µM. Further, the half-maximal cytotoxic concentration (CC50) at 48 h in series [2] is above 200 µM.
Take `O=C(COc1ccccc1)Nc1ccc(N2CCN(c3ccccc3F)CC2)cc1C(=O)O` [Compound 5]: the IC50 in series [1] (Influenza A virus, MDCK) was above 200 µM. For the same compound, in [2], the cytotoxic concentration (CC50) at 48 h is above 200 µM.
In turn, `CC(=O)c1ccc(N2CCN(C(=O)c3cc4c(=O)n(C)c5ccccc5c4s3)CC2)cc1` [Compound 6] returned an IC50 in [1] (Influenza A virus, MDCK) of 4.85 ± 0.58 µM. The CC50 at 48 h in series [2] is above 200 µM.
In the case of `O=C(Cc1cccs1)Nc1ccc(N2CCN(c3ccccc3Cl)CC2)cc1C(=O)O` [Compound 7], 17.2 ± 1.19 µM corresponded to half-maximal inhibition in series [1] (Influenza A virus, MDCK) (IC50). This compound gave a 50% cytotoxic concentration (CC50) at 48 h in series [2] above 200 µM.
For `CN1C(=O)c2ccccc2Sc2cc(-c3noc(CNC(=O)Cc4ccc(Cl)cc4)n3)ccc21` [Compound 8], the half-maximal inhibitory concentration (IC50) in series [1] (Influenza A virus, MDCK) came to 13.4 ± 2.45 µM. Also, the CC50 at 48 h in [2] was above 200 µM.
For `Cc1ccc(-c2onc3ccc(-c4cc(C(=O)O)c5ccccc5n4)cc23)cc1` [Compound 9], half-maximal inhibition in series [1] (Influenza A virus, MDCK) (IC50) was put at 7.35 ± 1.65 µM. This compound also came in with a CC50 at 48 h in [2] above 200 µM.
In series [1] (Influenza A virus, MDCK), `Cc1ccc(-c2onc3ccc(-c4cc(C(=O)O)c5cc(C)ccc5n4)cc23)cc1` [Compound 10] showed an IC50 of 1.75 ± 0.28 µM. The compound also yielded a CC50 at 48 h in [2] above 200 µM.
As to `Cc1cc2nc(C)c(C(=O)O)n2cc1-c1ccc(-c2ccccc2)cc1` [Compound 11, 6-([1,1′-Biphenyl]-4-yl)-2,7-dimethylimidazo[1,2-a]pyridine-3-carboxylic acid], on human DHODH (read-out: Ka, association constant), the kon was 4.83e+06 M⁻¹ s⁻¹. Further, the koff at human DHODH (read-out: Kdis, dissociation constant) came out at 29.3 s⁻¹. The IC50 was 0.85 ± 0.05 µM in [1] (setting [5]) and 3.6 ± 0.67 µM in the series with SARS-CoV-2 (setting [6]). The 50% cytotoxic concentration (CC50) at 48 h in series [2] and in series [3] was above 200 µM in each case.
Turning to `Cc1nc2ccc(-c3ccc(-c4ccccc4)cc3)cn2c1C(=O)O` [Compound 12, 6-([1,1′-Biphenyl]-4-yl)-2-methylimidazo[1,2-a]pyridine-3-carboxylic acid], the half-maximal inhibitory concentration (IC50) in [1] (A/PR/8/34(H1N1), MDCK cells, plaque reduction, read-out: IC50) is 100 ± 1.13 µM; in series [1] (setting [5]), above 100 µM; with SARS-CoV-2 (setting [6]) it was above 200 µM. The CC50 at 48 h in series [2] and in series [3] was above 200 µM throughout.
Regarding `Cc1nc2ncc(-c3ccc(-c4ccccc4)cc3)cn2c1C(=O)O` [Compound 13, 6-([1,1′-Biphenyl]-4-yl)-2-methylimidazo [1,2-a]pyrimidine-3-carboxylic acid], the values for the IC50 (in [1] (setting [5]); in the series on SARS-CoV-2 (setting [6])) were 1.08 ± 0.26 µM and 105 ± 5.19 µM, respectively. The CC50 at 48 h in [2] and in series [3] was above 200 µM in each case.
With `CCOC(=O)c1c(C)nc2ccc(-c3ccc(-c4ccccc4)cc3)cn12` [Compound 14, Ethyl 6-([1,1′-biphenyl]-4-yl)-2-methylimidazo[1,2-a]pyridine-3-carboxylate], the IC50 (in series [1] (setting [5]); in the series with SARS-CoV-2 (setting [6])) was above 200 µM in each case. The CC50 at 48 h in series [2] and in [3] was above 200 µM each time.
As to `CCOC(=O)c1c(C)nc2cc(C)c(-c3ccc(-c4ccccc4)cc3)cn12` [Compound 15, Ethyl 6-([1,1′-biphenyl]-4-yl)-2,7-dimethylimidazo[1,2-a]pyridine-3-carboxylate], the concentration for half-maximal inhibition (IC50) (in series [1] (setting [5]); with SARS-CoV-2 (setting [6])) was above 200 µM in each case. The CC50 at 48 h in series [2] and in series [3] was above 200 µM throughout.
With `CCOC(=O)c1c(C)nc2ncc(-c3ccc(-c4ccccc4)cc3)cn12` [Compound 16, Ethyl 6-([1,1′-biphenyl]-4-yl)-2-methylimidazo[1,2-a]pyrimidine-3-carboxylate], the IC50 (in series [1] (setting [5]); in the series on SARS-CoV-2 (setting [6])) was above 200 µM each time. The CC50 at 48 h in series [2] and in [3] was above 200 µM throughout.
In the case of `C/C(O)=C(\C#N)C(=O)Nc1ccc(C(F)(F)F)cc1` [Compound 17, teriflunomide, reference compound], the half-maximal inhibitory concentration (IC50) in [1] (setting [5]) was 35 ± 3.33 µM; with DHODH (competing with ubiquinone, read-out: IC50 (DHODH inhibition)), […]; in the series with SARS-CoV-2 (setting [6]), 26.1 ± 4.32 µM. The 50% cytotoxic concentration (CC50) at 48 h in series [2] is 181 ± 16.4 µM; in series [3] it was above 200 µM.
Take `Cc1c(-c2ccc(-c3ccccc3F)cc2)nc2ccc(F)cc2c1C(=O)O` [Compound 18, brequinar]: at human DHODH (SPR), the “Ka, association constant” value is 1.31 × 10^6 M^−1S^−1. Also, in [4], the cytotoxic concentration (CC50) was above 5 µM. The concentration giving a half-maximal response (EC50) in the series with DENV and ZIKV viruses was 0.017 to 0.061 µM.
For `CCC(CC)COC(=O)[C@H](C)N[P@](=O)(OC[C@H]1O[C@@](C#N)(c2ccc3c(N)ncnn23)[C@H](O)[C@@H]1O)Oc1ccccc1` [Remdesivir, reference compound], inhibition in the series on SARS-CoV-2 was half-maximal at 4.95 ± 0.78 µM (IC50).
For the compound `COc1cccc(-c2ccc(NC(=O)C3=C(C(=O)O)CCC3)c(F)c2)c1` [vidofludimus], the IC50 with DHODH (enhanced selectivity, read-out: IC50) is 0.041 to 0.16 µM.

One may read the EC50 as the midpoint of the concentration-response curve. The IC50 is the concentration that inhibits the measured activity by half. As usually defined, the CC50 is the concentration that lowers cell viability or growth by half.
